Assays:
[1] = AUC (0 to infinity) in ICR mouse at 5 mg/kg, iv; type: ADME, organism-based; design: route intravenous, time infinity, dose 5 mg/kg; conditions: in vivo
[2] = Metabolic stability in monkey liver microsomes assessed as clearance; type: ADME, Macaca mulatta, Microsome; conditions: rhesus monkey, read-out: CLH
[3] = Metabolic stability in mouse liver microsomes assessed as clearance; type: ADME, Microsome; conditions: read-out: CLH
[4] = Metabolic stability in human liver microsomes assessed as clearance; type: ADME, Microsome; conditions: read-out: CLH
[5] = Metabolic stability in dog liver microsomes assessed as clearance; type: ADME, Canis lupus familiaris, Microsome; conditions: read-out: CLH
[6] = Volume of distribution at steady state in ICR mouse at 5 mg/kg, iv; type: ADME, organism-based; conditions: in vivo, read-out: Vdss
[7] = Metabolic stability in rat liver microsomes assessed as clearance; type: ADME, Microsome; conditions: read-out: CLH
[8] = Half life in ICR mouse at 5 mg/kg, iv; type: ADME, organism-based; conditions: in vivo

COC(=O)c1sccc1Nc1nc(Nc2cc3c(cc2OC)CCN3C(=O)CN(C)C)ncc1C(F)(F)F
AUC(0-inf) [1]: 776 ng·h/mL
CLint scaled [2]: 196 mL/min/kg
CLint scaled [3]: 331 mL/min/kg
CLint scaled [4]: 74.3 mL/min/kg
CLint scaled [5]: 61.5 mL/min/kg
Vd [6]: 5.21 L/kg
CLint scaled [7]: 91.3 mL/min/kg
half-life [8]: 1.47 h

Reference: ChEMBL document CHEMBL4765429, “Discovery of methyl 3-((2-((1-(dimethylglycyl)-5-methoxyindolin-6-yl)amino)-5-(trifluoro-methyl) pyrimidin-4-yl)amino)thiophene-2-carboxylate as a potent and selective polo-like kinase 1 (PLK1) inhibitor for combating hepatocellular carcinoma” (Eur J Med Chem, 2020)
